This is an account of results in EP2848696A1, “Caspase-1 imaging probes” (Sanofi-Aventis Deutschland GmbH, priority 2013, dated 2015).

For series [1], the target named is T1, Caspase-1 (Homo sapiens, UniProt P29466).
T1 sequence (P29466 120-297 limits assumed): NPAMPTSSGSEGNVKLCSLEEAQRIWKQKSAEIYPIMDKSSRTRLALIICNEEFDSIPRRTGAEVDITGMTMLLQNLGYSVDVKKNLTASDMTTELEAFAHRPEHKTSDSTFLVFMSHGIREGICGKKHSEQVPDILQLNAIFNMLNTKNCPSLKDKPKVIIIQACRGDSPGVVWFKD
T1 sequence (P29466 317-404 limits assumed): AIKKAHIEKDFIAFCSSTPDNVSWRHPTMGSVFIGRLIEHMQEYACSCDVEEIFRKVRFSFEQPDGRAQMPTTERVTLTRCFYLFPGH
Description: In vitro cleavage of the probe by caspase-1 (fluorescence / FRET change). The class given is biochemical. Conditions: for in vitro cleavage: 10 µM probe, 10 nM caspase-1, E/S ratio 1/1000, 25 cycles: 1 min. intervals. As to the method: The E/S ratio was 1/1000, 25 cycles: 1 min. intervals. • Figure 5: Cellular assay with Probe III; PMA=Phorbol-12-myristate-13-acetate; LPS=Lipopolysaccharide; zVAD=carbobenzoxy-valyl-alanyl-asparty-[O-methyl]-fluoromethylketone • Figure 6A-E: Kinetic characterization of probes II, VI, V, IV, and VII. • Figure 7: Cell permeability assay.

Series [2] addresses T1, Caspase-1. The series is described as follows: Specificity of the probe towards caspase-1. Conditions: summary of biological assays. The class given is biochemical. The method, then:
The E/S ratio was 1/1000, 25 cycles: 1 min. intervals. • Figures 4A-C: show the in vitro cleavage of 10 µM probe VI in the presence of 10 nM caspase-1. […] The E/S ratio was 1/1000, 25 cycles: 1 min. intervals. • Figure 5: Cellular assay with Probe III; PMA=Phorbol-12-myristate-13-acetate; LPS=Lipopolysaccharide; zVAD=carbobenzoxy-valyl-alanyl-asparty-[O-methyl]-fluoromethylketone • Figure 6A-E: Kinetic characterization of probes II, VI, V, IV, and VII. • Figure 7: Cell permeability assay.

The nature of series [3]: Cellular toxicity (summary statement). It is filed as cell-based. Conditions: summary of biological assays.

Description for THP-1 cells: THP-1 cells were differentiated with PMA in 4-well glass chambers for 48 hours. 2 hours before the assay zVAD-fmk was added to negative controls. Probes were then added to the cells in 5 µM final concentration and the probe uptake was studied by fluorescence microscopy.

Take `CCN(CC)c1ccc2cc(C(=O)NNC(=O)[C@H](CC(=O)O)NC(=O)[C@@H]3CCCN4C(=O)CC[C@H](NC(=O)c5cc6ccc(OC)cc6oc5=O)C(=O)N34)c(=O)oc2c1` [Probe III]: the in vitro cleavage result at Caspase-1 [1] is on record as “cleaved very efficiently”. Besides, the FRET change result on Caspase-1 [1] (Figure 1A, cleavage by caspase-1) is given as “about 10 fold”. On Caspase-1 [1] (Figure 1A, dependence on enzyme dose), the “change of fluorescence intensity in response to cleavage by caspase-1” value was “enzyme dose-dependent manner”. For the same compound, the “FRET change (concentration dependence)” value on Caspase-1 [1] (summary of biological assays) is on record as “- Concentration dependent FRET change”. Further, the specificity entry on Caspase-1 [2] is listed as “- Superiorly specific”. In addition, in series [3], the toxicity result is recorded as “- No sign of toxicity”. The Cell permeability entry in the series on THP-1 cells was “- Cell permeability”.

As for `CCCCCCCCN(CCCCCCCC)c1ccc2c(COC(=O)CCCC(=O)NNC(=O)[C@H](CC(=O)O)NC(=O)[C@@H]3CCCN4C(=O)CC[C@H](NC(=O)c5cc6ccc(OC)cc6oc5=O)C(=O)N34)cc(=O)oc2c1` [Probe I], the “Cellular entry (time)” value in the series with THP-1 cells is reported as “- Cellular entry within 5-7 min”.

On to `CCN(CC)c1ccc2cc(C(=O)NCC(=O)NCCCCCCCCNC(=O)[C@H](CC(=O)O)NC(=O)[C@@H]3CCCN4C(=O)CC[C@H](NC(=O)c5cc6ccc(OC)cc6oc5=O)C(=O)N34)c(=O)oc2c1` [Probe VI], for which, at Caspase-1 [1], the in vitro cleavage result was “cleaved very efficiently”.
